Where two headings read alike, the source gives them in different places.
Legend:
Assay type in all cases: biochemical
Aβ 1-42 fibrils = target: T1, Aβ 1-42 fibrils (Homo sapiens, UniProt P05067); experiment: Thioflavin T fluorometry - disruption of pre-formed Aβ 1-42 Alzheimer's fibrils; details: 3 days; for inhibition / % Inhibition Aβ (result ± S.D.): 25 μM pre-fibrillized Aβ 1-42, 37° C.; for inhibition: read-out: % Inhibition Aβ (result ± S.D.)
T1 construct: purchased Bachem Inc
How it was run: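 Pre-fibrillized Aβ1-42 (25 µM) incubated 3 days at 37 °C alone or with compound at Aβ:compound weight ratios 1:1 to 1:0.001. Remaining fibrils quantified by Thioflavin T fluorescence (ex 444/em 485 nm) in phosphate buffer pH 6.8, blank-subtracted for buffer or compound alone.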

IAPP fibrils [1] = target: T2, IAPP fibrils (Homo sapiens, UniProt P10997); experiment: Thioflavin T fluorometry - disruption of type 2 diabetes IAPP fibrils; details: 3 days; for inhibition / % Inhibition IAPP (result ± S.D.): 25 μM pre-fibrillized IAPP, 37° C.; for inhibition: read-out: % Inhibition IAPP (result ± S.D.)
T2 construct: purchased Bachem Inc
T2 sequence (P10997 34-70 limits assumed): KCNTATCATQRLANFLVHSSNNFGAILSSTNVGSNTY
How it was run: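 Pre-fibrillized human IAPP (25 μM) incubated 3 days at 37 °C alone or with compound at IAPP:compound weight ratios of 1:1 to 1:0.001. Mixtures then mixed with Thioflavin T in phosphate buffer pH 6.8; fluorescence read at 485 nm (ex 444 nm) after blank subtraction.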

IAPP fibrils [2] = target: T2, IAPP fibrils; experiment: Congo red binding assay with IAPP fibrils; details: for % Inhibition IAPP (result ± S.D.), Congo red binding: 3-day incubation
How it was run: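 IAPP incubated 3 days with test compounds or EDTA at IAPP:compound weight ratios of 1:1, 1:0.1, 1:0.01 or 1:0.001, then vacuum-filtered (0.2 μm). Filter-retained IAPP stained with Congo red and washed; reduced staining versus IAPP without compound read as less aggregated, congophilic IAPP.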

NAC fibrils = target: T3, NAC fibrils (Homo sapiens, UniProt P37840); experiment: Thioflavin T fluorometry - disruption of Parkinson's disease NAC fibrils; details: 3 days; for inhibition / % Inhibition NAC (result ± S.D.): 25 μM pre-fibrillized NAC, 37° C.; for inhibition: read-out: % Inhibition NAC (result ± S.D.); for disruption/disassembly of pre-formed NAC fibrils (in words): all concentrations tested (ratios 1:1 to 1:0.001)
T3 construct: NAC is a 35-amino acid fragment of α-synuclein; purchased Bachem Inc
Experimental: In this assay, Thioflavin T binds specifically to NAC fibrils, and this binding produces a fluorescence enhancement at 485 nm that is directly proportional to the amount of NAC fibrils present. The higher the fluorescence, the greater the amount of NAC fibrils present (Naki et al, Lab. Invest. 65:104-110, 1991; Levine III, Protein Sci. 2:404-410, 1993; Amyloid: Int. J. Exp. Clin. Invest. 2:1-6, 1995).
In this study, 25 μM of pre-fibrillized NAC (Bachem Inc) was incubated at 37° C. for 3 days either alone or in the presence of dihydroxy synthetic analog compounds #1, 3, 23, 26, 52, 63, 66, 67, or EDTA (at NAC:test compound weight ratios of 1:1, 1:0.1, 1:0.01 or 1:0.001). Following 3-days of co-incubation, 50 βl of each incubation mixture was transferred into a 96-well microtiter plate containing 150 μl of distilled water and 50 μl of a Thioflavin T solution (i.e. 500 mM Thioflavin T in 250 mM phosphate buffer, pH 6.8). The fluorescence was read at 485 nm (444 nm excitation wavelength) using an ELISA plate fluorometer after subtraction with buffer alone or compound alone, as blank.

[3] = Aβ:test compound wt/wt ratio 1:0.001
[4] = Aβ:test compound wt/wt ratio 1:0.01
[5] = Aβ:test compound wt/wt ratio 1:0.1
[6] = Aβ:test compound wt/wt ratio 1:1
[7] = IAPP:test compound wt/wt ratio 1:0.001
[8] = IAPP:test compound wt/wt ratio 1:0.01
[9] = IAPP:test compound wt/wt ratio 1:0.1
[10] = IAPP:test compound wt/wt ratio 1:1
[11] = NAC:test compound wt/wt ratio 1:0.001
[12] = NAC:test compound wt/wt ratio 1:0.01
[13] = NAC:test compound wt/wt ratio 1:0.1
[14] = NAC:test compound wt/wt ratio 1:1
[15] = all concentrations tested (ratios 1:1 to 1:0.001)

T1 sequence (P05067 672-713): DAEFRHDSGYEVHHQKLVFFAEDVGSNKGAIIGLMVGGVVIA

O=C(CCC(=O)NCc1ccc(O)c(O)c1)NCc1ccc(O)c(O)c1 [Compound 67, succinic acid bis(3,4-dihydroxybenzylamide)]
inhibition (Aβ 1-42 fibrils; [3]): 13.7 ± 6.05%
inhibition (Aβ 1-42 fibrils; [4]): 34 ± 14.1%
inhibition (Aβ 1-42 fibrils; [5]): 50.9 ± 8.32%
inhibition (Aβ 1-42 fibrils; [6]): 98.3 ± 2.19%
inhibition (IAPP fibrils [1]; [7]): 16.1 ± 12.4%
inhibition (IAPP fibrils [1]; [8]): 34.8 ± 1.87%
inhibition (IAPP fibrils [1]; [9]): 81.4 ± 6.96%
inhibition (IAPP fibrils [1]; [10]): 98.6 ± 0.22%
% Inhibition IAPP (result ± S.D.), Congo red binding (IAPP fibrils [2]; [7]): 0.0 ± 3.45%
% Inhibition IAPP (result ± S.D.), Congo red binding (IAPP fibrils [2]; [8]): 10.6 ± 1.29%
% Inhibition IAPP (result ± S.D.), Congo red binding (IAPP fibrils [2]; [9]): 5.5 ± 2.52%
% Inhibition IAPP (result ± S.D.), Congo red binding (IAPP fibrils [2]; [10]): 26.3 ± 2.76%
inhibition (NAC fibrils; [11]): 11.9 ± 16%
inhibition (NAC fibrils; [12]): 30.6 ± 5.75%
inhibition (NAC fibrils; [13]): 50 ± 7.03%
inhibition (NAC fibrils; [14]): 97.4 ± 1.19%
disruption/disassembly of pre-formed NAC fibrils (in words) (NAC fibrils): dose-dependent disruption/disassembly

O=C(O)CN(CCN(CC(=O)O)CC(=O)O)CC(=O)O [EDTA, reference compound]
% Inhibition Aβ (result ± S.D.) (Aβ 1-42 fibrils; [3]): 0.0 ± 3.01%
% Inhibition Aβ (result ± S.D.) (Aβ 1-42 fibrils; [4]): 0.0 ± 4.88%
% Inhibition Aβ (result ± S.D.) (Aβ 1-42 fibrils; [5]): 0.0 ± 7.12%
% Inhibition Aβ (result ± S.D.) (Aβ 1-42 fibrils; [6]): 11.3 ± 9.67%
disruption/disassembly of preformed Aβ 1-42 fibrils (in words) (Aβ 1-42 fibrils; [15]): no significant inhibition
% Inhibition IAPP (result ± S.D.) (IAPP fibrils [1]; [7]): 4.2 ± 1.05%
% Inhibition IAPP (result ± S.D.) (IAPP fibrils [1]; [8]): 0.0 ± 5.23%
% Inhibition IAPP (result ± S.D.) (IAPP fibrils [1]; [9]): 0.1 ± 2.59%
% Inhibition IAPP (result ± S.D.) (IAPP fibrils [1]; [10]): 4.4 ± 9.23%
disruption/disassembly of pre-formed IAPP fibrils (in words) (IAPP fibrils [1]; [15]): no significant inhibition
% Inhibition IAPP (result ± S.D.), Congo red binding (IAPP fibrils [2]; [7]): 6.6 ± 2.27%
% Inhibition IAPP (result ± S.D.), Congo red binding (IAPP fibrils [2]; [8]): 3.6 ± 2.83%
% Inhibition IAPP (result ± S.D.), Congo red binding (IAPP fibrils [2]; [9]): 0.0 ± 1.91%
% Inhibition IAPP (result ± S.D.), Congo red binding (IAPP fibrils [2]; [10]): 0.0 ± 3.69%
inhibition of IAPP fibril binding to Congo red (in words) (IAPP fibrils [2]; all concentrations tested (ratios 1:1 to 1:0.001), 3 days): no significant inhibition
% Inhibition NAC (result ± S.D.) (NAC fibrils; [11]): 0.0 ± 11.6%
% Inhibition NAC (result ± S.D.) (NAC fibrils; [12]): 0.0 ± 10.87%
% Inhibition NAC (result ± S.D.) (NAC fibrils; [13]): 0.0 ± 5.87%
% Inhibition NAC (result ± S.D.) (NAC fibrils; [14]): 20.0 ± 11.8%
disruption/disassembly of pre-formed NAC fibrils (in words) (NAC fibrils): no significant inhibition
